Laboratory results reported in patent US12365651B2, “Use of pirfenidone and derivatives for modulation of B lymphocyte activity and organ protection from acute tissue damage” (Washington University, priority 2017, dated 2025).

Experiments:
Type in all cases: cell-based, mouse
[1] = test system: peritoneal derived inflammatory cells (PDICs); test: CD86 on CD19+ cells in cultured peritoneal derived inflammatory cells (PDICs), wild type; conditions: for number of CD19+ CD86high lymphocytes: 24 h, p<0.001
Experimental: Peritoneal derived inflammatory cells (PDICs) were harvested from the peritoneal cavity of thioglycolate-stimulated wild-type and TIRAP−/− deficient mice. PDIC cultures contain an admixture of inflammatory cells, including CD19+ B cells (40). TIRAP deficient mice were a gift from Dr. Ruslan Medzhitov (Yale University, New Haven, CT). PDICs were harvested on day 4 after i.p. injection of 1 ml of thioglycolate medium (Millipore, Billerica, MA, USA). Mice were euthanized, and the peritoneal cavity was washed 3-4 times with 3 mLs of Dulbecco's modified medium containing 10% fetal calf serum. A 3 mL syringe with an 18-gauge needle was used to inject the peritoneal cavity and retrieve the medium containing PDICs. Harvested cells were centrifuged at 250 g for 5 minutes, re-suspended in 5 mL of media and then filtered through a 40 μm strainer. Cells were plated at ˜1.5 million cells/mL in 12 or 24 well plates. Primary splenic derived B lymphocytes were isolated with the MagniSort Mouse B cell Enrichment Kit (Invitrogen, Carlsbad, CA, USA) according to manufacturer's instruction and plated in 96 well plates at 1 million cells/ml. The purity of isolated B cells was checked by flow cytometry and was >85% in all reported experiments. Both PDICs and primary B lymphocytes were cultured in DMEM with 10% FCS, 1 mM sodium pyruvate, penicillin/streptomycin (GIBCO, 1×), 2 mM L-Glutamine, 10 mM Hepes and 55 μM 2-Mercaptoethanol.
We used LPS-EB ultrapure lipopolysaccharide (InvivoGen, San Diego, CA, USA) or necrotic cell extracts (NCEs) to stimulate the cell cultures. For stimulation with LPS, LPS was added at 100 ng/mL at the time of plating. NCEs were prepared from H9c2 cells, in a similar manner to the protocol described for mouse heart and mouse liver extracts (18). For stimulation, NCEs were added at a final concentration of 10 μg/mL at the time the cells were plated. LPS and NCE stimulation were performed in the presence and absence of Pirfenidone for 24 hours. […]

[2] = test system: PDICs obtained from thioglycolate-stimulated TIRAP−/− mice; test: CD86 on CD19+ cells in cultured PDICs from TIRAP−/− mice; conditions: LPS stimulated cultures
Description: Noting that prior studies have shown that B cells are activated by engagement of TLR by damage-associated molecular patterns (DAMPs) released by necrotic cells (17), and noting that TLR signaling was present in CD19+CD11b− lymphocytes sorted from DT injured animals but absent in the same cells sorted from DT injured animals treated with Pirfenidone, we focused our in vitro studies on CD19+ cells using lipolysaccharide (a classic TLR4 agonist and a T-independent antigen), as well as necrotic cardiac cell extracts, which we and others have shown signal through TLR4 (18). […] To further explore the role of TLR mediated signaling, we repeated these experiments in PDICs obtained from thioglycolate-stimulated TIRAP−/− mice. […] Importantly, both mechanisms were sensitive to treatment with Pirfenidone (FIG. 10E and FIG. 10F).
Peritoneal derived inflammatory cells (PDICs) were harvested from the peritoneal cavity of thioglycolate-stimulated wild-type and TIRAP−/− deficient mice. PDIC cultures contain an admixture of inflammatory cells, including CD19+ B cells (40). TIRAP deficient mice were a gift from Dr. Ruslan Medzhitov (Yale University, New Haven, CT). PDICs were harvested on day 4 after i.p. injection of 1 ml of thioglycolate medium (Millipore, Billerica, MA, USA). […]

[3] = test system: Peritoneal derived inflammatory cells; test: In vitro immunomodulatory effect of tested PEG compounds (CD86 on CD19+ cells, LPS); conditions: LPS 100 ng/ml, 24 h, various concentrations
Experimental: Peritoneal derived inflammatory cells were collected on day for post intraperitoneal injection of Thyoglicollate. Cells were cultured for 24 h in baseline condition (control), in the presence of LPS 100 ng/ml (LPS) or in the presence of LPS 100 ng/ml and various concentrations of different forms of Pegylated Pirfenidone (named C2 and C3 in FIG. 11A and C4 to C6 in FIG. 11B)). After the 24 h in culture cells were collected and analyzed via flow cytometry to assess the expression of CD86 on CD19+ cells (B lymphocytes). […] FIG. 11C reports the molecular weights of the tested forms of PEGylated Pirfenidone and the molecular weight (MW) ration between the tested compound and Pirfenidone).

SMILES: Cc1ccc(=O)n(-c2ccccc2)c1 [Pirfenidone, 5 methyl-1-phenyl-2-[H] pyridone]
- LPS induced expression of CD86 on B cells ([1]; B lymphocytes from the peritoneum, 24 hours, LPS + 0.5% pirfenidone): significantly reduced
- number of CD19+ CD86high lymphocytes ([1]; PDICs stimulated with LPS): significantly attenuated
- number of CD19+ CD86high lymphocytes ([1]; PDICs stimulated with cytosolic extracts from necrotic cells): significantly attenuated
- CD19+ CD86high lymphocytes [2]: small but significant (p<0.001) decrease
- expression of CD86 on CD19+ cells [3]: reduced
